Measurements published in patent US20080227792A1, “3,4-Dihydro-1H-Isoquinoline-2-Carboxylic Acid 5-Aminopyridin-2-Yl Esters” (Novo Nordisk A/S, priority 2005, published 2008).

How the values were obtained:
[1] = target: T1, hormone sensitive lipase (HSL) (Homo sapiens, UniProt Q05469); test: 3190.2: Assay for determination of IC50 value for the inhibition of hormone sensitive lipase; format: biochemical; conditions: fluorochrome-labeled triacylglyceride substrate; 30 min pre-incubation at 25° C., 120 min incubation at 37° C.; 4PL fit
T1 construct: made in house
T1 sequence (Q05469 1-1076): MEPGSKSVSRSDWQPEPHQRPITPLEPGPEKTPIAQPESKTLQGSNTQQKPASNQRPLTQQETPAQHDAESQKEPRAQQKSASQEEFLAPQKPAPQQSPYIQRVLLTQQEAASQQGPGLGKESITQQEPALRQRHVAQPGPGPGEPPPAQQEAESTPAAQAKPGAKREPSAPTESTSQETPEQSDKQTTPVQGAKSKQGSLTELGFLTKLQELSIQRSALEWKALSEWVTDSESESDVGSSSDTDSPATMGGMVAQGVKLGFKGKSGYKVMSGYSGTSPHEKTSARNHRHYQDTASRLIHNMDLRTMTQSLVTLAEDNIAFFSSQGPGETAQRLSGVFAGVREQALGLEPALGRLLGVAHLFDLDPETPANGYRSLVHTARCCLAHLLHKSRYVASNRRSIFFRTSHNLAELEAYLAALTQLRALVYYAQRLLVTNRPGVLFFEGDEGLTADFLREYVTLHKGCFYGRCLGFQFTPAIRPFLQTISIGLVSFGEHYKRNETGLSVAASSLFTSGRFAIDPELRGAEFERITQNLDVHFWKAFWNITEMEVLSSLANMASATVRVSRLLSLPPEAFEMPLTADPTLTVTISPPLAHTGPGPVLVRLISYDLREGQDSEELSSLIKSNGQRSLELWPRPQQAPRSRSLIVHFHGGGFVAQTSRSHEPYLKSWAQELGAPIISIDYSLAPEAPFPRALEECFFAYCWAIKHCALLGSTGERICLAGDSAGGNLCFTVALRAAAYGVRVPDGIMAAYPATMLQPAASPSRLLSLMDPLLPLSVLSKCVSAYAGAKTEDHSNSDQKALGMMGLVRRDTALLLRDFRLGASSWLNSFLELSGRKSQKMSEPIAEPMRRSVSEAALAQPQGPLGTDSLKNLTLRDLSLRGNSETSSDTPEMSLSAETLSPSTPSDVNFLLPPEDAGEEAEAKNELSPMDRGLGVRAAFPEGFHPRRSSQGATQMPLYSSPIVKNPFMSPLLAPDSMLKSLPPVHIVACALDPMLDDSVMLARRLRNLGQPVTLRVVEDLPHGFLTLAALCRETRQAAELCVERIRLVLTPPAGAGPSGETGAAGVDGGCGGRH
Excerpt: Materials. The Hormone-sensitive lipase was provided by Dr. Cecilia Holm, from Lund University Sweden or produced and purified by Novo Nordisk (NN) using the reagents and protocols used by Dr. Holm. The substrates used are: ^3H-labeled triolein (TO) from Amersham, Buckinghamshire, U.K. cat o. TRA191; 5-20 Ci/mmol dissolved in toluene, triolein (Sigma, Cat. No. T-1740), fluorochrome-labeled triacylglyceride (cis-octadec-9-enoic acid 2-[12-(7-nitrobenzo[1,2,5]oxadiazol-4-ylamino)-dodecanoyloxy]-1-cis-octadec-9-enoyloxymethylethyl ester) prepared by Novo Nordisk (NN) by conventional methods, and 1,3-(di[^3H]-stearin), 2-(PEG-Biotin)glycerol prepared in collaboration with Amersham Pharmacia Biotech, UK and described in WO 01/073442. Phosphatidyl choline (PC) and phosphatidyl inositol (PI) are from Sigma (St Luis Mo. cat. Nos. P-3556 and P-5954, respectively). All other reagents are of commercial grade and obtained from various commercial sources.
3190.2: Assay for determination of IC50 value for the inhibition of hormone sensitive lipase by compound. Standard concentrations of compound are 100 μM and 5-fold dilutions (initial concentration corresponding to 10 μM final concentration and 5-fold).
A lipid emulsion with fluorochrome-labeled triacylglyceride and phospholipid is used as substrate with a standard concentration of highly purified HSL (12 μg/mL initial concentration corresponding to 600 ng/mL final concentration). BSA is added as product acceptor. The transfer of the fluorochrome from the lipid phase to the water (BSA) phase changes the fluorescent properties of the fluorochrome. The changes can be monitored on a fluorimeter with an excitation wavelength of 450 nm and an emission wavelength of 545 nm.
Compound and HSL (20 μL compound, 10 μL enzyme and 70 μL PED-BSA buffer) is pre-incubated for 30 min at 25° C. before addition of substrate (100 μL). Amount of formed product is measured after 120 min incubation at 37° C.
Results are given as IC50 values after 4PL fit of obtained activity data.

IC50 [1] [nM] | melting point [°C] | Structure (SMILES)
400 | 156 to 158 | CC1(C)CC(=O)N(c2ccc(OC(=O)N3CCc4ccccc4C3)nc2)C(=O)C1 [Example 1, 3,4-Dihydro-1H-isoquinoline-2-carboxylic acid 4,4-dimethyl-2,6-dioxo-3,4,5,6-tetrahydro-2H-[1,3′]bi-pyridinyl-6′-yl ester]
40 | – | O=C(Oc1ccc(N2C(=O)CC3(CCCC3)CC2=O)cn1)N1CCc2ccccc2C1 [Example 3, 3,4-Dihydro-1H-isoquinoline-2-carboxylic acid 5-(7,9-dioxo-8-azaspiro[4.5]dec-8-yl)pyridin-2-yl ester]

Structure (SMILES) | IC50 [1] [nM] | melting point [°C]
O=C(Oc1ccc(NC2=NC3(CCCC3)CS2)cn1)N1CCc2ccccc2C1 [Example 4, 3,4-Dihydro-1H-isoquinoline-2-carboxylic acid 5-(3-thia-1-azaspiro[4.4]non-1-en-2-ylamino)-pyridin-2-yl ester] | 400 | –
